Several values for one entry are separate records, joined by “and”; a condition that tells them apart may be missing. Equal values may be shown once. Read-outs that look alike come from different tables or passages of the source.
Experiments:
[1] = test system: wounds of STZ-induced diabetic rats; test: Wound closure test in STZ-induced diabetic rats; assay type: in vivo, rat; settings: mean ± SEM
Description: Approximately 8 weeks old, with body weight rages of 250 g to 300 g SD male rats were obtained from National Laboratory Animal Center, Taiwan. After 7 days of quarantine, the rats were moved until the body weight over 350 g. The rats were identified by ear notch of the animals. Each cage tag was labeled with the cage number, study number, sex and group name. The rats were housed 2 per cage in polycarbonate cage in the AAALAC accredited animal facility. […] Laboratory Rodent Diet 5001 (PMI® Nutrition International, Inc., MO, USA) were supplied ad libitum throughout the study period. Tap water was supplied ad libitum via bottles attached to the cages. Samples (test articles) were prepared according to Table 4. [table] CGS-21680: Specific adenosine A2A subtype receptor agonist, prepared by adding 1.67 mg of CGS-21680 in 248.4 g of cream base. Diabetic rats: The rats with body weight over 300 g were administrated with one dose of Streptozotocin (STZ, 65 mg/kg) by intravenous injection. The STZ-induced rats with high blood sugar (over 300 mg/dL) for 2 months were selected to conduct the wound closure test. Trauma surgeries for diabetic rats: The diabetic rats with weight lower than 300 g were eliminated and the rest were randomized into 6 groups. The rats were then anesthetized with pentobarbital and hairs on surgical area (dorsal area) were removed. […] Medication and wound closure measurement: The animals were weighed and the area of wounds was measured every other day for evaluation of wound closure. Medications were applied to each wound twice a day and the wounds were covered with cheesecloth. The hoods were worn on the necks of the rats to prevent the wounds from receiving animal scratches. […] When taking pictures, a standard ruler was placed beside the wounds. Before analyzing the wounds with Image pro (Media cybernetics), length was standardized with the standard ruler in the picture to avoid the errors caused by different picturing distances. Data analysis and statistics: Three wound areas on the rats' backs were analyzed by Image pro. The original wound areas were the areas of day zero. The original wound areas minus the wound areas at different time points and then divided by the original wound areas to get the wound closure percentages. The mean of three wound closure percentages of each rat represents the wound closure of each rat. The data was shown as mean±standard error (SEM). The p-values of the testing results were calculated by t-test in statistics software (SYSTAT, Systat software inc). P<0.05 means there is a significant difference, and it is marked with *. P<0.01 means there is a very significant difference, and it is marked with **. P<0.001 means there is an extremely significant difference, and it is marked with ***.

[2] = test system: MDA-MB-231 (human breast cancer cells) tumor; test: Tumor growth in MDA-MB-231 tumor-bearing nude mice; assay type: in vivo; settings: CTX one injection a week, test article topical 0.1 g/day
Description: Cell line and reagent: MDA-MB-231 (purchased from Food Industry Research and Development Institute, Taiwan); […] Animal facility: Approximately 6 to 8 week-old BALB/cAnN.Cg-Foxn1^nu/CrlNarl female mice were obtained from National Laboratory Animal Center, Taiwan. […] Water and food was supplied ad libitum throughout the study period. The mice were housed according to the standard procedure of the laboratory animal committee. Tumor-bearing mice induction: […] The weight, appetite, blood sugar and tumor size growth were observed every week to assess the appearance of the normal physiological state of nude mice to understand the efficacy of the extract composition. Grouping the tumor-bearing mice and treatment: […] The chemotherapy drug (an injection a week) was administrated with the extract composition. […] [table] Clinical assessment of tumor-bearing mice: The physiological state and tumor size of the tumor-bearing mice were assessed including weight, appetite, blood sugar and tumor size.

[3] = assay type: in vivo, nude mice
Protocol: Animal facility: Approximately 6 to 8 week-old BALB/cAnN.Cg-Foxn1^nu/CrlNarl female mice were obtained from National Laboratory Animal Center, Taiwan. The environment conditions were: temperature: 25±1° C.; humidity: 60±5%; independent air condition; controlled light cycle. Water and food was supplied ad libitum throughout the study period. The mice were housed according to the standard procedure of the laboratory animal committee.
Tumor-bearing mice induction: MDA-MB-231 cells (human breast cancer cells) were cultured until 5×10^6 cells, the cells required in injection of female nude mice were collected with trypsin, and resuspended in PBS solution for tumor induction. The tumor of nude mice was induced by subcutaneous injected with 100 μL of cell solution and released back into the cages to be a normal diet. When the tumor was about 300 mm^3, the mice were subjected to topical administration of different doses of the extract composition and grouping into CTX group and non-CTX group. The weight, appetite, blood sugar and tumor size growth were observed every week to assess the appearance of the normal physiological state of nude mice to understand the efficacy of the extract composition.
Grouping the tumor-bearing mice and treatment: When the tumor was about 300 mm^3, the mice were subjected to grouping as shown in Table 12. The chemotherapy drug (an injection a week) was administrated with the extract composition. The treating group was topically applied to the tumor area, skin around the tumor, and the whole back skin with the dosage of 0.1 g/day. After treatment for 5 weeks, the weight, appetite, blood sugar and tumor size growth of the nude mice were observed.
Clinical assessment of tumor-bearing mice: The physiological state and tumor size of the tumor-bearing mice were assessed including weight, appetite, blood sugar and tumor size. The tumor size was calculated according to: tumor volume (mm^3)=ab^2/2, to assess the tumor growth rate.

CCNC(=O)[C@H]1O[C@@H](n2cnc3c(N)nc(NCCc4ccc(CCC(=O)O)cc4)nc32)[C@H](O)[C@@H]1O [CGS-21680]
wound closure percentage ([1]; Experimental 1, day 4, topical twice a day, CGS-21680 10 μg/wound): 21.87±5.61% and 21.87 ± 5.61 *** %
wound closure percentage ([1]; Experimental 1, day 6, topical twice a day, CGS-21680 10 μg/wound): 25.45 ± 4.46 *** %
wound closure percentage ([1]; Experimental 1, day 8, topical twice a day, CGS-21680 10 μg/wound): 45.88 ± 4.28 *** %
wound closure percentage ([1]; Experimental 1, day 10, topical twice a day, CGS-21680 10 μg/wound): 93.80 ± 2.79 *** %
wound closure percentage ([1]; Experimental 1, day 12, topical twice a day, CGS-21680 10 μg/wound): 91.15 ± 2.72 ** %
wound closure percentage ([1]; Experimental 1, day 14, topical twice a day, CGS-21680 10 μg/wound): 98.74 ± 0.60 ** %
wound closure percentage ([1]; Experimental 2, day 4, topical twice a day, CGS-21680 6.7 μg/wound): 40.02 ± 5.03 ** %
wound closure percentage ([1]; Experimental 2, day 6, topical twice a day, CGS-21680 6.7 μg/wound): 63.09 ± 2.58 *** %
wound closure percentage ([1]; Experimental 2, day 8, topical twice a day, CGS-21680 6.7 μg/wound): 77.21 ± 2.44 *** %
wound closure percentage ([1]; Experimental 2, day 10, topical twice a day, CGS-21680 6.7 μg/wound): 80.93 ± 2.08 *** %
wound closure percentage ([1]; Experimental 2, day 12, topical twice a day, CGS-21680 6.7 μg/wound): 96.91 ± 1.08 *** %
wound closure percentage ([1]; Experimental 2, day 14, topical twice a day, CGS-21680 6.7 μg/wound): 99.17 ± 0.54 *** %

O=P1(N(CCCl)CCCl)NCCCO1 (centres unmarked) [CTX, cyclophosphamide]
tumor size elimination ([2]; 4/28): 0.00 mm^3
tumor size elimination ([2]; 5/2): 99.61 mm^3
tumor size elimination ([2]; 5/5): 78.95 mm^3
tumor size elimination ([2]; 5/9): −19.52 mm^3
tumor size elimination ([2]; 5/12): −45.11 mm^3
tumor size elimination ([2]; 5/16): −157.57 mm^3
tumor size elimination ([2]; 5/19): −176.41 mm^3
tumor size elimination ([2]; 5/23): −264.85 mm^3
tumor size elimination ([2]; 5/26): −293.68 mm^3
tumor size elimination ([2]; 5/30): −391.42 mm^3
average body weight ([3]; 4/28): 19.64 g
average blood sugar ([3]; 5/2): 113 dL
average body weight ([3]; 5/2): 20.04 g
average body weight ([3]; 5/5): 18.46 g
average food intake ([3]; 5/5~5/9): 4.89 g
average blood sugar ([3]; 5/9): 93 dL
average body weight ([3]; 5/9): 19.00 g
average food intake ([3]; 5/9~5/12): 5.61 g
average body weight ([3]; 5/12): 19.51 g
average food intake ([3]; 5/12~5/16): 5.38 g
average blood sugar ([3]; 5/16): 109 dL
average body weight ([3]; 5/16): 20.99 g
average food intake ([3]; 5/16~5/19): 5.21 g
average body weight ([3]; 5/19): 20.42 g
average food intake ([3]; 5/19~5/23): 4.70 g
average blood sugar ([3]; 5/23): 122 dL
average body weight ([3]; 5/23): 21.16 g
average food intake ([3]; 5/23~5/26): 4.76 g
average body weight ([3]; 5/26): 20.21 g
average food intake ([3]; 5/26~5/30): 5.22 g
average blood sugar ([3]; 5/30): 108 dL
average body weight ([3]; 5/30): 22.18 g
